# Molecular target: GST-Bc1-2 (Homo sapiens, UniProt P10415)
# Assay: Time Resolved-Fluorescence Resonance Energy Transfer (TR-FRET) Bcl-2 binding assay with F-Bak peptide probe
# Settings: GST-Bcl-2 1 nM, F-Bak probe 100 nM, Tb-anti-GST 1 nM; '<' = below limit of detection; read-out: TR-FRET Bcl-2 Binding Ki
# Protocol: The samples are then mixed on a shaker for 1 minute and incubated for an additional 3 hours at room temperature. For each assay, the probe/antibody and protein/probe/antibody were included on each assay plate as negative and positive controls, respectively.
# The samples were then mixed on a shaker for 1 minute and incubated for an additional 3 hours at room temperature. For each assay, the probe/antibody and protein/probe/antibody were included on each assay plate as negative and positive controls, respectively.
# Sequence of GST-Bc1-2 (P10415 whole entry): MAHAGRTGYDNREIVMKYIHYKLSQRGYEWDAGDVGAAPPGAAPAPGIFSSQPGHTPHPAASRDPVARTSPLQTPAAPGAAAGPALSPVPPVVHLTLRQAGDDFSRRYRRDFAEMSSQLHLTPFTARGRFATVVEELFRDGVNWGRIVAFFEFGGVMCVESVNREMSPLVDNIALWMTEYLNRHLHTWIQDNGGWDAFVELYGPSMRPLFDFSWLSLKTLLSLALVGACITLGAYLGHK
row,SMILES,Ki
1,"CC1(C)CCC(CN2CCN(c3ccc(C(=O)NS(=O)(=O)c4ccc(N[C@H]5CCN(CC(F)F)C5)c([N+](=O)[O-])c4)c(Oc4cnc5[nH]ccc5c4)c3)CC2)=C(c2ccc(Cl)cc2)C1 [Example 182, 4-(4-{[2-(4-chlorophenyl)-4,4-dimethylcyclohex-1-en-1-yl]methyl}piperazin-1-yl)-N-[(4-{[(3S)-1-(2,2-difluoroethyl)pyrrolidin-3-yl]amino}-3-nitrophenyl)sulfonyl]-2-(1H-pyrrolo[2,3-b]pyridin-5-yloxy)benzamide]",0.068 nM
2,"CC1(C)CCC(CN2CCN(c3ccc(C(=O)NS(=O)(=O)c4cnc(OCC5(F)CCOCC5)c(F)c4)c(Oc4cnc5[nH]ccc5c4)c3)CC2)=C(c2ccc(Cl)cc2)C1 [Example 248, 4-(4-{[2-(4-chlorophenyl)-4,4-dimethylcyclohex-1-en-1-yl]methyl}piperazin-1-yl)-N-({5-fluoro-6-[(4-fluorotetrahydro-2H-pyran-4-yl)methoxy]pyridin-3-yl}sulfonyl)-2-(1H-pyrrolo[2,3-b]pyridin-5-yloxy)benzamide]",0.029 nM
3,"CC1(C)CCC(CN2CCN(c3ccc(C(=O)NS(=O)(=O)c4cnc(OC[C@@H]5CCN(C(CF)CF)C5)c(Cl)c4)c(Oc4cnc5[nH]ccc5c4)c3)CC2)=C(c2ccc(Cl)cc2)C1 [Example 280, N-[(5-chloro-6-{[(3R)-1-(1,3-difluoropropan-2-yl)pyrrolidin-3-yl]methoxy}pyridin-3-yl)sulfonyl]-4-(4-{[2-(4-chlorophenyl)-4,4-dimethylcyclohex-1-en-1-yl]methyl}piperazin-1-yl)-2-(1H-pyrrolo[2,3-b]pyridin-5-yloxy)benzamide]",0.071 nM
4,"CC1(C)CCC(CN2CCN(c3ccc(C(=O)NS(=O)(=O)c4ccc(NCC5CN(CC(F)F)CCO5)c([N+](=O)[O-])c4)c(Oc4cnc5[nH]ccc5c4)c3)CC2)=C(c2ccc(Cl)cc2)C1 (stereo not drawn) [Example 166, 4-(4-{[2-(4-chlorophenyl)-4,4-dimethylcyclohex-1-en-1-yl]methyl}piperazin-1-yl)-N-{[4-({[4-(2,2-difluoroethyl)morpholin-2-yl]methyl}amino)-3-nitrophenyl]sulfonyl}-2-(1H-pyrrolo[2,3-b]pyridin-5-yloxy)benzamide]",< 0.01 nM
5,"CC1(C)CCC(CN2CCN(c3ccc(C(=O)NS(=O)(=O)c4ccc(OCC5(F)CCN(C6COC6)CC5)c([N+](=O)[O-])c4)c(Oc4cnc5[nH]ccc5c4)c3)CC2)=C(c2ccc(Cl)cc2)C1 [Example 167, 4-(4-{[2-(4-chlorophenyl)-4,4-dimethylcyclohex-1-en-1-yl]methyl}piperazin-1-yl)-N-({4-[(4-fluoro-1-oxetan-3-ylpiperidin-4-yl)methoxy]-3-nitrophenyl}sulfonyl)-2-(1H-pyrrolo[2,3-b]pyridin-5-yloxy)benzamide]",< 0.01 nM
6,"CC1(C)CCC(CN2CCN(c3ccc(C(=O)NS(=O)(=O)c4cnc(OCC5(F)CCN(C(CF)CF)CC5)c(Cl)c4)c(Oc4cnc5[nH]ccc5c4)c3)CC2)=C(c2ccc(Cl)cc2)C1 [Example 282, N-[(5-chloro-6-{[1-(1,3-difluoropropan-2-yl)-4-fluoropiperidin-4-yl]methoxy}pyridin-3-yl)sulfonyl]-4-(4-{[2-(4-chlorophenyl)-4,4-dimethylcyclohex-1-en-1-yl]methyl}piperazin-1-yl)-2-(1H-pyrrolo[2,3-b]pyridin-5-yloxy)benzamide]",< 0.01 nM
7,"CC1(C)CCC(CN2CCN(c3ccc(C(=O)NS(=O)(=O)c4ccc(NC5CCC(N(CCC#N)C6CC6)CC5)c([N+](=O)[O-])c4)c(Oc4cnc5[nH]ccc5c4)c3)CC2)=C(c2ccc(Cl)cc2)C1 (stereo not drawn) [Example 340, 4-(4-{[2-(4-chlorophenyl)-4,4-dimethylcyclohex-1-en-1-yl]methyl}piperazin-1-yl)-N-{[4-({4-[(2-cyanoethyl)(cyclopropyl)amino]cyclohexyl}amino)-3-nitrophenyl]sulfonyl}-2-(1H-pyrrolo[2,3-b]pyridin-5-yloxy)benzamide]",< 0.01 nM
8,"CC1(C)CCC(CN2CCN(c3ccc(C(=O)NS(=O)(=O)c4ccc(NCC5CCCN(S(C)(=O)=O)C5)c([N+](=O)[O-])c4)c(Oc4cnc5[nH]ccc5c4)c3)CC2)=C(c2ccc(Cl)cc2)C1 (stereo not drawn) [Example 147, 4-(4-{[2-(4-chlorophenyl)-4,4-dimethylcyclohex-1-en-1-yl]methyl}piperazin-1-yl)-N-{[4-({[1-(methylsulfonyl)piperidin-3-yl]methyl}amino)-3-nitrophenyl]sulfonyl}-2-(1H-pyrrolo[2,3-b]pyridin-5-yloxy)benzamide]",< 0.01 nM
9,"CC1(C)CCC(CN2CCN(c3ccc(C(=O)NS(=O)(=O)c4ccc(OCC5(F)CCOCC5)c(S(=O)(=O)C(F)(F)F)c4)c(Oc4cnc5[nH]ccc5c4)c3)CC2)=C(c2ccc(Cl)cc2)C1 [Example 220, 4-(4-{[2-(4-chlorophenyl)-4,4-dimethylcyclohex-1-en-1-yl]methyl}piperazin-1-yl)-N-({4-[(4-fluorotetrahydro-2H-pyran-4-yl)methoxy]-3-[(trifluoromethyl)sulfonyl]phenyl}sulfonyl)-2-(1H-pyrrolo[2,3-b]pyridin-5-yloxy)benzamide]",0.988 nM
10,"CC1(C)CCC(CN2CCN(c3ccc(C(=O)NS(=O)(=O)c4cnc(OCC5CCN(c6nccs6)CC5)c(Cl)c4)c(Oc4cnc5[nH]ccc5c4)c3)CC2)=C(c2ccc(Cl)cc2)C1 [Example 375, 4-(4-{[2-(4-chlorophenyl)-4,4-dimethylcyclohex-1-en-1-yl]methyl}piperazin-1-yl)-N-[(5-chloro-6-{[1-(1,3-thiazol-2-yl)piperidin-4-yl]methoxy}pyridin-3-yl)sulfonyl]-2-(1H-pyrrolo[2,3-b]pyridin-5-yloxy)benzamide]",0.11 nM
11,"CN1CCC(COc2ncc(S(=O)(=O)NC(=O)c3ccc(N4CCN(CC5=C(c6ccc(Cl)cc6)CC(C)(C)CC5)CC4)cc3Oc3cnc4[nH]ccc4c3)cc2Br)CC1 [Example 47, N-({5-bromo-6-[(1-methylpiperidin-4-yl)methoxy]pyridin-3-yl}sulfonyl)-4-(4-{[2-(4-chlorophenyl)-4,4-dimethylcyclohex-1-en-1-yl]methyl}piperazin-1-yl)-2-(1H-pyrrolo[2,3-b]pyridin-5-yloxy)benzamide]",< 0.01 nM
12,"CC1(C)CCC(CN2CCN(c3ccc(C(=O)NS(=O)(=O)c4ccc(NCCCN5CCOCC5)c([N+](=O)[O-])c4)c(Oc4cnc5[nH]ccc5c4)c3)CC2)=C(c2ccc(Cl)cc2)C1 [Example 55, 4-(4-{[2-(4-chlorophenyl)-4,4-dimethylcyclohex-1-en-1-yl]methyl}piperazin-1-yl)-N-({4-[(3-morpholin-4-ylpropyl)amino]-3-nitrophenyl}sulfonyl)-2-(1H-pyrrolo[2,3-b]pyridin-5-yloxy)benzamide]",< 0.01 nM
13,"CC1(C)CCC(CN2CCN(c3ccc(C(=O)NS(=O)(=O)c4ccc(NCC5CN(C6CC6)CCO5)c([N+](=O)[O-])c4)c(Oc4cnc5[nH]ccc5c4)c3)CC2)=C(c2ccc(Cl)cc2)C1 (stereo not drawn) [Example 218, 4-(4-{[2-(4-chlorophenyl)-4,4-dimethylcyclohex-1-en-1-yl]methyl}piperazin-1-yl)-N-[(4-{[(4-cyclopropylmorpholin-2-yl)methyl]amino}-3-nitrophenyl)sulfonyl]-2-(1H-pyrrolo[2,3-b]pyridin-5-yloxy)benzamide]",0.013 nM
14,"CC1(C)CCC(CN2CCN(c3ccc(C(=O)NS(=O)(=O)c4ccc(OCC5CCN(C(CF)CF)CC5)c([N+](=O)[O-])c4)c(Oc4cnc5[nH]ccc5c4)c3)CC2)=C(c2ccc(Cl)cc2)C1 [Example 129, 4-(4-{[2-(4-chlorophenyl)-4,4-dimethylcyclohex-1-en-1-yl]methyl}piperazin-1-yl)-N-{[4-({1-[2-fluoro-1-(fluoromethyl)ethyl]piperidin-4-yl}methoxy)-3-nitrophenyl]sulfonyl}-2-(1H-pyrrolo[2,3-b]pyridin-5-yloxy)benzamide]",0.002 nM
15,"CC1(C)CCC(CN2CCN(c3ccc(C(=O)NS(=O)(=O)c4ccc(N[C@H]5CCN(CCF)C5)c([N+](=O)[O-])c4)c(Oc4cnc5[nH]ccc5c4)c3)CC2)=C(c2ccc(Cl)cc2)C1 [Example 181, 4-(4-{[2-(4-chlorophenyl)-4,4-dimethylcyclohex-1-en-1-yl]methyl}piperazin-1-yl)-N-[(4-{[(3S)-1-(2-fluoroethyl)pyrrolidin-3-yl]amino}-3-nitrophenyl)sulfonyl]-2-(1H-pyrrolo[2,3-b]pyridin-5-yloxy)benzamide]",0.017 nM
16,"CC1(C)CCC(CN2CCN(c3ccc(C(=O)NS(=O)(=O)c4ccc(NCC5CCCN(CC#N)C5)c([N+](=O)[O-])c4)c(Oc4cnc5[nH]ccc5c4)c3)CC2)=C(c2ccc(Cl)cc2)C1 (stereo not drawn) [Example 229, 4-(4-{[2-(4-chlorophenyl)-4,4-dimethylcyclohex-1-en-1-yl]methyl}piperazin-1-yl)-N-{[4-({[1-(cyanomethyl)piperidin-3-yl]methyl}amino)-3-nitrophenyl]sulfonyl}-2-(1H-pyrrolo[2,3-b]pyridin-5-yloxy)benzamide]",2.11 nM
17,"CC1(C)CCC(CN2CCN(c3ccc(C(=O)NS(=O)(=O)c4ccc(NCC5CCN(C6COC6)CC5)c([N+](=O)[O-])c4)c(Oc4cnc5[nH]ccc5c4)c3)CC2)=C(c2ccc(Cl)cc2)C1 [Example 163, 4-(4-{[2-(4-chlorophenyl)-4,4-dimethylcyclohex-1-en-1-yl]methyl}piperazin-1-yl)-N-[(3-nitro-4-{[(1-oxetan-3-ylpiperidin-4-yl)methyl]amino}phenyl)sulfonyl]-2-(1H-pyrrolo[2,3-b]pyridin-5-yloxy)benzamide]",< 0.01 nM

# Same assay, conditions: TR-FRET Bcl-2 Binding Ki
row,SMILES,Ki
1,"CC1(C)CCC(CN2CCN(c3ccc(C(=O)NS(=O)(=O)c4ccc(NC(=O)N5CCOCC5)c([N+](=O)[O-])c4)c(Oc4cnc5[nH]ccc5c4)c3)CC2)=C(c2ccc(Cl)cc2)C1 [Example 373, N-(4-{[4-(4-{[2-(4-chlorophenyl)-4,4-dimethylcyclohex-1-en-1-yl]methyl}piperazin-1-yl)-2-(1H-pyrrolo[2,3-b]pyridin-5-yloxy)benzoyl]sulfamoyl}-2-nitrophenyl)morpholine-4-carboxamide]",< 0.001 nM

# — patent publication US8580794B2 (AbbVie Inc., priority 2009, dated 2013)
